Test systems include UO-31 renal; TK-10 renal; BT-549 breast; SNB-19 CNS; IGROV1 ovarian; SK-OV-3 ovarian; MDA-MB-231 breast; OVCAR-4 ovarian; T-47D breast; MCF7 breast; COLO 205 colon; NCI-H226 lung; A498 renal; DU-145 prostate; ACHN renal; U251 CNS; NCI-H23 lung; NCI-H460 lung; SR leukemia; SK-MEL-28 melanoma.
Assay in all cases: NCI anticancer screen, dose series, 48 h

Seven compounds from PubChem BioAssay (NCI) can be followed below.

The structures appear in SMILES notation.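 Method: 48-hour compound exposure of cells in 96-well plates, five concentrations, linear interpolation of endpoints. TGI denotes the concentration required for complete inhibition of growth.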 Some results are limits rather than exact numbers.

Regarding `O=C(N[C@@H](c1ccccc1)[C@@H](O)C(=O)OCc1ccc([N+](=O)[O-])cc1)c1ccccc1`, the TGI in the experiment with UO-31 renal, in the experiment on TK-10 renal, in the experiment on BT-549 breast, in the experiment with SNB-19 CNS, with IGROV1 ovarian and in the experiment with SK-OV-3 ovarian was over 100 µM in each case. Also, the TGI in the experiment on MDA-MB-231 breast, in the experiment on OVCAR-4 ovarian, in the experiment with T-47D breast, with MCF7 breast, in the experiment with COLO 205 colon and in the experiment with NCI-H226 lung was over 100 µM in each case. For the same compound, the TGI with A498 renal, in the experiment on DU-145 prostate, with ACHN renal, with U251 CNS, in the experiment with NCI-H23 lung and in the experiment on NCI-H460 lung was over 100 µM in each case.

For `COC(=O)[C@]12CCC(C)(C)C[C@H]1[C@H]1C(=O)C=C3[C@@]4(C)C=C(C#N)C(=O)C(C)(C)[C@@H]4CC[C@@]3(C)[C@]1(C)CC2`, the TGI was determined as 1.15 µM in the experiment with UO-31 renal; 0.152 µM in the experiment with TK-10 renal; 0.194 µM with BT-549 breast; 0.243 µM with SNB-19 CNS; 1.15 µM in the experiment on IGROV1 ovarian; 1.1 µM in the experiment with SK-OV-3 ovarian. The TGI in the experiment with SR leukemia is 0.141 µM; in the experiment with MDA-MB-231 breast, 0.106 µM; in the experiment with OVCAR-4 ovarian, over 7.76 µM; with T-47D breast, 0.159 µM; with COLO 205 colon, 0.122 µM; in the experiment with NCI-H226 lung, 0.301 µM. Moreover, the TGI in the experiment with A498 renal was 0.114 µM; in the experiment on DU-145 prostate, 0.295 µM; in the experiment with ACHN renal it was 0.0639 µM; in the experiment on U251 CNS, 0.0744 µM; with NCI-H23 lung, 0.0392 µM; in the experiment with NCI-H460 lung it was over 13.5 µM.

As to `Cc1c(C)n(-c2ccccc2)c2nc(S(C)(=O)=O)nc(S(C)(=O)=O)c12`, the TGI in the experiment with UO-31 renal was 3.23 µM; in the experiment on TK-10 renal, 3.55 µM; in the experiment on SNB-19 CNS it was 25.6 µM; in the experiment on IGROV1 ovarian, 9.24 µM; with SK-OV-3 ovarian, 34.2 µM; with SR leukemia, 2.46 µM. Besides, the TGI is 19.4 µM in the experiment on MDA-MB-231 breast; 3.13 µM with OVCAR-4 ovarian; 5.52 µM in the experiment on T-47D breast; 2.79 µM with MCF7 breast; 3.29 µM with COLO 205 colon; 6.73 µM in the experiment on SK-MEL-28 melanoma. Moreover, the TGI came to 47.4 µM in the experiment with NCI-H226 lung; 28.9 µM with A498 renal; 27.7 µM in the experiment with DU-145 prostate; 2.91 µM with ACHN renal; 11.2 µM with U251 CNS; 23.3 µM in the experiment on NCI-H23 lung. Also, in the experiment on NCI-H460 lung, the TGI was 37.1 µM.

With `Fc1ccc(C(=C2CCN(CCc3ccc4[nH]c(=S)[nH]c4c3)CC2)c2ccc(F)cc2)cc1`, the TGI in the experiment with UO-31 renal was 5.11 µM; with TK-10 renal, 4.74 µM; in the experiment with BT-549 breast, 14.2 µM; with SNB-19 CNS it was 27.9 µM; with IGROV1 ovarian, 17 µM; with SK-OV-3 ovarian, 36.8 µM. Besides, the TGI stood at 15 µM in the experiment on MDA-MB-231 breast; 12.7 µM in the experiment with OVCAR-4 ovarian; 4.1 µM in the experiment on T-47D breast; 5.94 µM in the experiment on MCF7 breast; 3.31 µM with COLO 205 colon; 2.63 µM in the experiment on SK-MEL-28 melanoma. The TGI with NCI-H226 lung turned out to be 52.3 µM; in the experiment with A498 renal, 25 µM; in the experiment with DU-145 prostate, 8.91 µM; in the experiment on ACHN renal it was 24.1 µM; with U251 CNS, 11.3 µM; in the experiment with NCI-H23 lung, 13.1 µM. For the same compound, the TGI in the experiment on NCI-H460 lung was found to be 8.94 µM.

`CN1CCc2c(sc3ncn(C)c(=N)c23)C1`: the TGI in the experiment with TK-10 renal, with BT-549 breast, with SNB-19 CNS, in the experiment with IGROV1 ovarian, with SK-OV-3 ovarian and in the experiment on MDA-MB-231 breast was over 100 µM in each case. Moreover, the TGI in the experiment with OVCAR-4 ovarian, with T-47D breast, in the experiment on MCF7 breast, with COLO 205 colon, with SK-MEL-28 melanoma and with NCI-H226 lung was over 100 µM each time. For the same compound, the TGI with A498 renal, in the experiment on DU-145 prostate, in the experiment with ACHN renal, with U251 CNS, in the experiment on NCI-H23 lung and in the experiment with NCI-H460 lung was over 100 µM each time.

With `O=C(Oc1ccccc1)N1c2ccccc2[C@@]23O[C@]24CCC[C@H]3C#C/C=C\C#C[C@H]14`, the TGI in the experiment with UO-31 renal is 26.5 µM; with TK-10 renal it was 47.8 µM; with BT-549 breast, 25.5 µM; with SNB-19 CNS, 29.1 µM; with IGROV1 ovarian it was 24.9 µM; in the experiment with SK-OV-3 ovarian, 17.1 µM. Also, the TGI in the experiment with SR leukemia worked out at 41.1 µM; in the experiment on MDA-MB-231 breast it was 24.8 µM; in the experiment with OVCAR-4 ovarian, 23.3 µM; in the experiment on T-47D breast it was 22 µM; in the experiment on COLO 205 colon, 28 µM; in the experiment on SK-MEL-28 melanoma it was 27 µM. In addition, the TGI is 38.1 µM with NCI-H226 lung; 27.6 µM in the experiment on A498 renal; 30.5 µM in the experiment on DU-145 prostate; 30.3 µM in the experiment on U251 CNS; 28.7 µM in the experiment on NCI-H23 lung; 11.4 µM in the experiment on NCI-H460 lung.

With `COc1ccc2[nH]c3c(c2c1)CC(=S)N1CCCC(CC3=O)C1` (centres undefined), the TGI in the experiment on UO-31 renal, with TK-10 renal, in the experiment on BT-549 breast, with SNB-19 CNS, in the experiment on IGROV1 ovarian and with SK-OV-3 ovarian was over 100 µM in each case. Also, the TGI with MDA-MB-231 breast, in the experiment with OVCAR-4 ovarian, with T-47D breast, in the experiment on MCF7 breast, in the experiment with COLO 205 colon and in the experiment with SK-MEL-28 melanoma was over 100 µM in each case. Further, the TGI in the experiment on NCI-H226 lung, in the experiment on A498 renal, in the experiment on DU-145 prostate, in the experiment with ACHN renal, in the experiment on U251 CNS and with NCI-H23 lung was over 100 µM in each case. This compound also showed a TGI with NCI-H460 lung of 92.6 µM.
